The term EC50 denotes the concentration that produces a half-maximal response. Higher therefore signals a need for much substance. A word on the Papp A→B: it is how fast a substance crosses the layer from the apical side. Low readings indicate slow passage, high ones fast passage. As usually defined, the Papp B→A is how fast a substance crosses the layer from the basolateral side.

One data set addresses T1, mouse TGR5 (Mus musculus, UniProt Q80SS6).
T1 sequence (Q80SS6 1-329): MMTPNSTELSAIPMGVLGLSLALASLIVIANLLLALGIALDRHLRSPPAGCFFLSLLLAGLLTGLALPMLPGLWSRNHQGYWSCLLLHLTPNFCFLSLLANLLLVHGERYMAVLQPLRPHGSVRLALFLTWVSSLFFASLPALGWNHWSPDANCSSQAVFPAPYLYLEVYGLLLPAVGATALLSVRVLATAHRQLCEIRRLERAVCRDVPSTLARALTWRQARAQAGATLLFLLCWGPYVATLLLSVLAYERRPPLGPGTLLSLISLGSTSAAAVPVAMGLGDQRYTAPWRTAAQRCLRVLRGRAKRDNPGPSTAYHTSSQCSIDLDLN
The data set can be described thus: In vitro TGR5 reporter gene assay (mTGR5/CRE/HEK293).

For a further data set, the system named is ICR mice. Nature of the data set: Oral glucose tolerance test (OGTT) in ICR mice. It is filed as in vivo, mouse. Here is the method:
Blood glucose levels were measured berefore and after glucose loading. *p < 0.05, **p < 0.01 vs. control. Error bar indicateds SEM (standard error of the mean). […]
Oral glucose tolerance test (OGTT) and gallbladder filling assay in ICR mice. 100 […]
mice (n = 7-8) 90 min prior to the oral glucose load (4 g/kg). Blood glucose levels were measured via blood drops obtained by clipping the tail of the mice using an Accu-Chek Advantage II Glucose Monitor (Roche, Indianapolis, IN, USA) before compound dosing and 0, 15, 30, 60, and 120 min after the glucose load. The area under the concentration−time curve from 0 to 120 min (AUC0−120 min, Glu) of blood glucose after the glucose load was calculated by the trapezoidal rule. […]

A further data set has as its system ob/ob mice. Nature of the data set: Gallbladder filling assay in ob/ob mice. It is filed as in vivo, mouse. As to conditions: once a day oral dose 100 mg/kg (single dose). The method, then:
Figure 8 (A) Relative gallbladder area and (B) relative bile weight after once a day oral dose or 3-day treatment. […] 1 h after the final dose, mice were re-fed for 3 h and then the gallbladder was removed and the area measured using a vernier caliper. The relative gallbladder area was calculated from the length multiplied by the width of the gallbladder. Bile weight was measured using analytical balances. **p < 0.01; ***p < 0.001. Error bar indicates SEM.
Acute efficacy in ob/ob mice. 7-week-old ob/ob mice (male) were divided into three groups (n = 8) based on 2 h-fasted blood glucose. […]
mg/kg) and 0.25% CMC (control) was then orally administered to 2 h-fasted mice, and blood glucose was measured at 2, 4, 6, 8, 10, and 24 h after dosing. […]
then divided into 3 subgroup of different time point (n = 8-9 each subgroup). […] Concentrations of active GLP-1[7-36 amide] in the serum were measured using ELISA kit from Linco Research. […]
administered to 12 h-fasted ob/ob mice (n = 3 per time point). […] After centrifugation at 11000 rpm for 5 mins, the supernatant was analyzed by LC-MS/MS. […]
administered orally to overnight-fasted ob/ob mice (male, n = 3-6). 1 h after dosing, mice were refed for 3 hours, and then gallbladders were removed, and the area was measured using vernier caliper. The relative gallbladder area was calculated from the length multiplied by the width of the gallbladder. […]

A short description of data set [1]: Caco-2 permeability determination. It is filed as in vitro ADME. As to conditions: human. Here is the method: Caco-2 permeability determination. Caco-2 permeability determination was carried out […]
Caco-2 cells were obtained from the ATCC (Cat#HTB-37) and maintained in Dulbecco’s modified Eagle’s Medium containing 10% fetal bovine serum, 1% glutamine, 1% nonessential amino acids, 100 μg/mL streptomycin, and 100 U/mL penicillin.
CO2 and 90% relative humidity environment. Caco-2 cells were passaged every 7 days at a ratio of 1:10. Cells were used between passages 30 and 40. After 21 days of culture, the integrity of the cell monolayer was verified by measuring the transepithelial electrical […]
Drug transport from the apical side to the basolateral side (A-B) and from the basolateral side to the apical side was measured simultaneously under the same condition.
Propranolol and atenolol were used as the […] control, respectively.
Digoxin was used as the positive control for Pgp-mediated drug efflux. In brief, the method was as follows. After washing the monolayer with HBSS three times, the compounds were diluted and added to the appropriate well (pH 6.8 for apical side and pH […]
7.4 for basolateral side). […] Samples were […]
collected from the donor side at 5 and 95 min, and from the receiver side at 35 and 95 min post-incubation. The concentration of samples was measured by LC-MS/MS. The Papp was calculated from the following equation:
Papp = (VA/(SA×T))×([drug]acceptor/ [durg]initial donor )
Where VA is the volume of the acceptor well, SA is the surface area of the membrane, T is the total transport time, [drug]acceptor is the drug level at the acceptor side, and [drug]initial donor is the drug level at the donor side at T = 0. […]
(In general: Passage across Caco-2 layers is used to estimate intestinal permeability.)

As to `CN(CC[N+](C)(C)C)C(=O)CCc1cc(Cl)c(Oc2ccsc2C(=O)N2CCN(C3CC3)c3ccccc32)cc1Cl` [Compound 26a], at mouse TGR5, the concentration for a half-maximal effect (EC50) was found to be 0.71 nM. In the data set with ICR mice (100 mg/kg p.o.), the “AUC0–120 min of blood glucose, signed change vs control (OGTT, Fig. 3B)” value is given as -18%. For the same compound, the “decrease of blood glucose AUC vs control (OGTT)” value with ICR mice (100 mg/kg p.o. 1.5 h before glucose 4 g/kg) was found to be 18%. In the data set on ob/ob mice, the “bile weight vs control” value is reported as “did not increase gallbladder area or bile weight significantly” and the “gallbladder area vs control” value was “did not increase gallbladder area or bile weight significantly”. The compound further registered an apical-to-basolateral permeability (Papp A→B) at 95 min in data set [1] (Caco-2, apical to basolateral side) of 0.06 ×10⁻⁶ cm/s. The same compound displayed a Papp B→A at 95 min in data set [1] (Caco-2, basolateral to apical side) of 0.8 ×10⁻⁶ cm/s.

Source of the values: paper PMC4919643, “Intestinally-targeted TGR5 agonists equipped with quaternary ammonium have an improved hypoglycemic effect and reduced gallbladder filling effect” (Scientific Reports, 2016).
